Measurements from US20260166160A1, “PROTACS TARGETING VIRAL ENZYMES FOR PRECISE TREATMENT OF COVID-19” (Ohio University, priority 2022, published 2026).
pEC50: −log10 of the molar value. Where two headings read alike, the source gives them in different places.

How the values were obtained:
Mpro = Mpro (Severe acute respiratory syndrome coronavirus 2, UniProt P0DTD1); assay: Mpro degradation in HEK293 cells stably expressing wild-type Mpro (tetracycline-inducible), Western Blot with anti-T7 antibodies; assay type: cell-based, SARS-CoV-2; settings: for remaining activity at 0.5 µM: HEK293, 24 h, read-out: Mpro (relative concentration)
Text: To evaluate the degradation activity of MP-C-4N (initially, and additional PROTAC compounds later), a Mpro expression system was constructed in mammalian cells. A cell line stably expressing wild-type Mpro was constructed. According to the RNA sequence of wild-type Mpro, the corresponding DNA sequence was synthesized and codon-optimzied to be suitable for expression in HEK293 cells. After investigating the influence of different expression vectors and promoters on the protein expression level, pCW57.1-TetOn was selected as the expression vector, which contains a tetracycline-inducible promoter, and the target protein expression can be started or closed by controlling the content of tetracycline. With this cell line, the process of expressing MPro during virus infection in human cells was successfully simulated. This model was used to successfully test the degradation ability of candidate compounds on the target protein. Specifically, the cells were treated with doxycycline (1 μg/mL) for 12 h. After removing doxycycline, the cells were treated with PROTACs with indicated concentrations for 24 h and then harvested. The expression of Mpro was determined by Western Blot (WB) analysis using anti-T7 antibodies.

[1] = tested on: human coronavirus OC43 (HCoV-OC43); assay: Anti-virus activity, HCoV-OC43 plaque formation in RD cells
[2] = compound at 500 nM, control 100%, Tables 1-3
[3] = Betacoronavirus 1, OC43, RD, RD cells infected with HCoV-OC43, 33° C., 4-5 days, plaque areas, Tables 7-11

SMILES	remaining activity at 0.5 µM (Mpro)	pEC50 ([1]; Betacoronavirus 1, OC43, RD)	other results
Cc1ccc(NC(=O)c2ccc(CN3CCN(C(=O)CCOCCOCCOCCNc4cccc5c4C(=O)N(C4CCC(=O)NC4=O)C5=O)CC3)cc2)cc1Nc1nc(-c2cccnc2)cs1 (centres unmarked) [MP-20]	28%	6.51	
O=C(CCOCCOCCOCCNc1cccc2c1C(=O)N(C1CCC(=O)NC1=O)C2=O)NCCn1cc(NC(=O)c2c(Cl)cccc2Cl)c(C(=O)NC2CCNCC2)n1 (centres unmarked) [MP-30]	52%	6.36	
O=C(CCOCCOCCNc1cccc2c1C(=O)N(C1CCC(=O)NC1=O)C2=O)NCCn1cc(NC(=O)c2c(Cl)cccc2Cl)c(C(=O)NC2CCNCC2)n1 (centres unmarked) [MP-29]	40%	6.42	
Cc1ccc(NC(=O)c2ccc(CN3CCN(C(=O)CCOCCOCCNc4cccc5c4C(=O)N(C4CCC(=O)NC4=O)C5=O)CC3)cc2)cc1Nc1nc(-c2cccnc2)cs1 (centres unmarked) [MP-19]	32%	6.50	
CC(C)C[C@H](NC(=O)[C@@H](NC(=O)[C@H](C)NC(=O)CCOCCOCCOCCOCCNc1cccc2c1C(=O)N(C1CCC(=O)NC1=O)C2=O)C(C)C)C(=O)N[C@H](C#N)C[C@@H]1CCNC1=O (some centres unmarked) [MP-42]			remaining activity at 0.5 µM (Mpro; [2]): 70%; pEC50 [1, 3]: 6.39
O=C(CCOCCOCCOCCOCCNc1cccc2c1C(=O)N(C1CCC(=O)NC1=O)C2=O)NCCn1cc(NC(=O)c2c(Cl)cccc2Cl)c(C(=O)NC2CCNCC2)n1 (centres unmarked) [MP-31]	65%	6.28	
Cc1ccc(NC(=O)c2ccc(CN3CCN(C(=O)CCOCCNc4cccc5c4C(=O)N(C4CCC(=O)NC4=O)C5=O)CC3)cc2)cc1Nc1nc(-c2cccnc2)cs1 (centres unmarked) [MP-18, 4-((4-(3-(2-((2-(2,6-dioxopiperidin-3-yl)-1,3-dioxoisoindolin-4-yl)amino)ethoxy)propanoyl)piperazin-1-yl)methyl)-N-(4-methyl-3-((4-(pyridin-3-yl)thiazol-2-yl)amino)phenyl)benzamide]	45%	6.47	
CC(C)C1CCN(C(=O)[C@@H](NC(=O)[C@H](C)NC(=O)CCOCCOCCOCCNc2cccc3c2C(=O)N(C2CCC(=O)NC2=O)C3=O)C(C)(C)C)C1C(=O)N[C@H](C#N)CC1CCNC1=O (some centres unmarked) [MP-C-4N]			concentration at which degradation of Mpro was detected (Mpro; WB, cells treated 24 h, FIG. 55): 0.5 to 1.0 µM; concentration dependence of Mpro degradation activity (Mpro; WB, FIG. 55): concentration-dependent
CC(C)C[C@H](NC(=O)[C@@H](NC(=O)[C@H](C)NC(=O)CCOCCOCCOCCNc1cccc2c1C(=O)N(C1CCC(=O)NC1=O)C2=O)C(C)C)C(=O)N[C@H](C#N)C[C@@H]1CCNC1=O (some centres unmarked) [MP-41]			remaining activity at 0.5 µM (Mpro; [2]): 45%; pEC50 [1, 3]: 6.49
O=C(CCOCCNc1cccc2c1C(=O)N(C1CCC(=O)NC1=O)C2=O)NCCn1cc(NC(=O)c2c(Cl)cccc2Cl)c(C(=O)NC2CCNCC2)n1 (centres unmarked) [MP-28, 4-(2,6-dichlorobenzamido)-1-(2-(3-(2-((2-(2,6-dioxopiperidin-3-yl)-1,3-dioxoisoindolin-4-yl)amino)ethoxy)propanamido)ethyl)-N-(piperidin-4-yl)-1H-pyrazole-3-carboxamide]	33%	6.50	
CC(C)C[C@H](NC(=O)[C@@H](NC(=O)[C@H](C)NC(=O)CCOCCOCCNc1cccc2c1C(=O)N(C1CCC(=O)NC1=O)C2=O)C(C)C)C(=O)N[C@H](C#N)C[C@@H]1CCNC1=O (some centres unmarked) [MP-40]			Mpro (relative concentration) (Mpro; [2]): 25%; pEC50 ([1]; RD cells infected with HCoV-OC43, 33° C., 4-5 days, plaque areas, Tables 7-11): 6.65
Cc1ccc(NC(=O)c2ccc(CN3CCN(C(=O)CCOCCOCCOCCOCCNc4cccc5c4C(=O)N(C4CCC(=O)NC4=O)C5=O)CC3)cc2)cc1Nc1nc(-c2cccnc2)cs1 (centres unmarked) [MP-21]	52%	6.32	
Cc1ccc(NC(=O)c2ccc(CN3CCN(C(=O)CCOCCOCCOCCOCCOCCNc4cccc5c4C(=O)N(C4CCC(=O)NC4=O)C5=O)CC3)cc2)cc1Nc1nc(-c2cccnc2)cs1 (centres unmarked) [MP-22]	75%	6.21	
O=C(CCOCCOCCOCCOCCOCCNc1cccc2c1C(=O)N(C1CCC(=O)NC1=O)C2=O)NCCn1cc(NC(=O)c2c(Cl)cccc2Cl)c(C(=O)NC2CCNCC2)n1 (centres unmarked) [MP-32]	80%	6.08	
CC(C)C[C@H](NC(=O)[C@@H](NC(=O)[C@H](C)NC(=O)CCOCCOCCNc1cccc2c1C(=O)N(C1CCC(=O)NC1=O)C2=O)C(C)C)C(=O)N[C@H](C#N)C[C@@H]1CCNC1=O (some centres unmarked) [MP-39]			remaining activity at 0.5 µM (Mpro; [2]): 40%; pEC50 [1, 3]: 6.63
CC(C)C[C@H](NC(=O)[C@@H](NC(=O)[C@H](C)NC(=O)CCOCCNc1cccc2c1C(=O)N(C1CCC(=O)NC1=O)C2=O)C(C)C)C(=O)N[C@H](C#N)C[C@@H]1CCNC1=O (some centres unmarked) [MP-38]			remaining activity at 0.5 µM (Mpro; [2]): 50%; pEC50 [1, 3]: 6.42
